Among the data in PMC9454089, “Structural and Mechanistic Evidence for Calcium Interacting Sites in the HIV Transmembrane Protein gp41 Involved in Membrane Fusion” (Biochemistry, 2022) are IC50 values, retold here.

This assay has as its system gp41 mediated cell–cell fusion (HXB2 strain HIV-1 Env; HL2-3 / TZM-bl cells). It is filed as cell-based. The settings on record: Figure 3, TZM-bl target and HL2/3 effector cells, 6 h coculture at 37 °C, luciferase, average ± S.E.M., n = 3, read-out: IC50, inhibition of cell–cell fusion. How it is done: Effector cells were the Env expressing cells HL2-3, a HeLa-derived cell line which constitutively expresses the HXB2 strain of the HIV-1 Env glycoprotein along the Tat protein, and as target cells, TZM-bl cells were used. The fusion of HL2-3 cells with TZM-bl cells was assessed through luciferase expression. The TZM-bl cells were seeded at 2 × 10^4 cells/well overnight in 96-well plates. The medium was then aspirated from each well and replaced with serum-free DMEM containing 40 μg/mL DEAE-dextran. […] Upon addition of the peptides, the HL2-3 cells were added to the TZM-bl cells in serum-free DMEM containing 40 μg/mL DEAE-dextran at a 1:1 cell ratio. The cells were cocultured at 37 °C for 6 h to allow the fusion to occur. Luciferase activity was analyzed using the Steady-Glo luciferase assay kit (Promega). Fitting of the data points was performed according to the following equation, derived from Hills’ equation [drawing 1]
For the fitting, we uploaded the X and Y values of the data into a nonlinear least-square regression (curve fitter) program that provided the IC50 value (parameter A).
A one-tailed Student’s T-test was used. P < 0.05 was considered significant. Analyses were done using GraphPad Prism (data analysis software) version 6.05 (*P ≤ 0.05, **P ≤ 0.01, and ***P ≤ 0.001).

Where two headings read alike, the source gives them in different places. Residues, ends and D or L forms follow the SMILES beside them.

On to `CC[C@H](C)[C@H](NC(=O)[C@H](CCC(=O)O)NC(=O)[C@H](CCCNC(=N)N)NC(=O)[C@H](C)NC(=O)[C@H](Cc1c[nH]c2ccccc12)NC(=O)[C@H](CCC(=O)O)NC(=O)[C@H](CCSC)NC(=O)[C@@H](N)Cc1c[nH]c2ccccc12)C(=O)N[C@@H](CC(N)=O)C(=O)N[C@@H](CC(N)=O)C(=O)N[C@@H](Cc1ccc(O)cc1)C(=O)N[C@H](C(=O)N[C@@H](CO)C(=O)N[C@@H](CC(C)C)C(=O)N[C@H](C(=O)N[C@@H](Cc1c[nH]cn1)C(=O)N[C@@H](CO)C(=O)N[C@@H](CC(C)C)C(=O)N[C@H](C(=O)N[C@@H](CCC(=O)O)C(=O)N[C@@H](CCC(=O)O)C(=O)N[C@@H](CO)C(=O)N[C@@H](CCC(N)=O)C(=O)N[C@@H](CC(N)=O)C(=O)N[C@@H](CCC(N)=O)C(=O)N[C@@H](CCC(N)=O)C(=O)N[C@@H](CCC(=O)O)C(=O)N[C@@H](CCCCN)C(=O)N[C@@H](CC(N)=O)C(=O)N[C@@H](CCC(=O)O)C(=O)N[C@@H](CCC(N)=O)C(=O)N[C@@H](CCC(=O)O)C(=O)N[C@@H](CC(C)C)C(=O)N[C@@H](CC(C)C)C(N)=O)[C@@H](C)CC)[C@@H](C)CC)[C@@H](C)O` [C34 D-A], for which the IC50 (0 mM Ca2+) was 0.6 ± 0.4 nM and the half-maximal inhibitory concentration (IC50) (2 mM Ca2+) amounted to 1.5 ± 0.7 nM.
Consider `CC[C@H](C)[C@H](NC(=O)CNC(=O)[C@H](Cc1c[nH]c2ccccc12)NC(=O)[C@@H](NC(=O)[C@@H](NC(=O)[C@H](CC(C)C)NC(=O)[C@H](CCC(N)=O)NC(=O)[C@H](CC(C)C)NC(=O)[C@H](CC(C)C)NC(=O)[C@H](C)NC(=O)[C@H](CCC(N)=O)NC(=O)[C@H](CCC(N)=O)NC(=O)[C@H](C)NC(=O)[C@H](C)NC(=O)[C@@H](NC(=O)[C@H](C)NC(=O)[C@H](C)NC(=O)[C@H](CC(C)C)NC(=O)[C@H](CC(C)C)NC(=O)[C@H](CC(N)=O)NC(=O)[C@H](CC(N)=O)NC(=O)[C@H](CCC(N)=O)NC(=O)[C@H](CCC(N)=O)NC(=O)[C@H](CCC(N)=O)NC(=O)[C@@H](NC(=O)[C@@H](NC(=O)CNC(=O)[C@@H](N)CO)[C@@H](C)CC)C(C)C)[C@@H](C)CC)[C@@H](C)O)C(C)C)C(=O)N[C@@H](CCCCN)C(=O)N[C@@H](CCC(N)=O)C(=O)N[C@@H](CC(C)C)C(=O)N[C@@H](CCC(N)=O)C(=O)N[C@@H](C)C(=O)N[C@@H](CCCNC(=N)N)C(=O)N[C@H](C(=O)N[C@@H](CC(C)C)C(N)=O)[C@@H](C)CC` [N36 3A] (H-SGIVQQQNNLLAAIAAQQALLQLTVWGIKQLQARIL-NH2), for which the IC50 came to 2980 ± 1070 nM (0 mM Ca2+), 262 ± 180 nM (2 mM Ca2+) and 800 ± 140 nM (5 mM Ca2+).

As a reminder, the IC50 is the concentration at which inhibition is half-maximal.
